According to US10294248B2, “Beta-lactamase inhibitors” (VenatoRx Pharmaceuticals, Inc., priority 2013, dated 2019):

Key:
[1] = system: K. pneumoniae 156319 expressing KPC-3; test: Broth microdilution MIC, K. pneumoniae 156319 KPC-3; format: cell-based; details: fixed 4 μg/mL meropenem; CAMHB, 16-20 hours at 37° C.
Excerpt: (§1) To determine the ability of test compounds to potentiate the inhibition of the growth of bacterial strains that produce beta-lactamase enzymes, classic cell based broth microdilution MIC assays were employed. Six bacteria strains producing beta-lactamase enzymes were used: E. coli expressing the Class A Extended Spectrum Beta-Lactamase (ESBL) CTX-M-15, E. cloacae expressing the Class C P99, K. pneumoniae expressing the Class A carbapenemase KPC-3, P. aeruginosa expressing the Class B carbapenemase VIM-2, K. pneumoniae expressing the class A carbapenemase KPC-2 and the class B carbapenemase VIM-4, and S. aureus producing the Class A penicillinase PC-1. The assay was conducted in Cation Adjusted Mueller Hinton Broth (CAMHB, BD #212322, BD Diagnostic Systems, Sparks, Md.). Bacteria strains were grown for 3-5 hours in CAMBH broth. Test compounds (Examples 1-30) were added to a microtiter plate in 2-fold serial dilutions in CAMHB in a final concentration range of 32 μg/mL to 0.25 μg/ml. An overlay of CAMHB containing a Beta-lactam was added to the compounds at a final static concentration of 4 μg/ml. […] In addition to the titration of test compounds the MICs of a panel of control beta-lactams is also tested to ensure the strains are behaving consistently from test to test. Once the test compound and antibiotics are added the plates can be inoculated according to CLSI broth microdilution method. After inoculation the plates are incubated for 16-20 hours at 37° C. then the Minimal Inhibitory Concentration (MIC) of the test compound is determined visually.
(§2) Using the methodology described above, examples of the current invention were evaluated for their ability to inhibit the growth of β-lactamase-producing bacteria in the presence of a β-lactam antibiotic.
(§3) Using the methodology described above in EXAMPLE III, exemplary compounds for Formula I or Formula Ia were evaluated for their ability to inhibit the growth of β-lactamase producing bacteria in the presence of a β-lactam antibiotic.

[2] = molecular target: T1, p99 AmpC β-lactamase (Class C) (Enterobacter cloacae, UniProt P05364); test: β-Lactamase inhibition, p99 AmpC; format: biochemical
T1 construct: made in house; host or cells: E. coli BL21(DE3)
T1 sequence (P05364 21-381): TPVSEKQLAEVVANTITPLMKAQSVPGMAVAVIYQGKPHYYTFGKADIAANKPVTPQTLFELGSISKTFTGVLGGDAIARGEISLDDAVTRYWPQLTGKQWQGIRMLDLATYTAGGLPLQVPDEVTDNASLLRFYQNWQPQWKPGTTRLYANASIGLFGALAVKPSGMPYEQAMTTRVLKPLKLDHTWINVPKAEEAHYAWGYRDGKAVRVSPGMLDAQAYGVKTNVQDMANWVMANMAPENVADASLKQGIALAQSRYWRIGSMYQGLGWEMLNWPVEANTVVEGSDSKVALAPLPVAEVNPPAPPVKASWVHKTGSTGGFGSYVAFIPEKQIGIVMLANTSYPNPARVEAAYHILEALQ
Experimental: (§4) For SHV-5, Kpc-2, p99AmpC and OXA-1 β-lactamases, E. coli BL21(DE3) bacterial cells carrying expression plasmids (expressed as native untagged proteins) for the individual β-lactamases were grown in 1 L of Superbroth (Teknova Inc. Hollister, Calif.) supplemented with 100 μg/ml kanamycin selection and 1×5052 (0.5% glycerol, 0.05% glucose and 0.2% α-lactose) at 35° C. for 18-20 hours. Cells were harvested by centrifugation (4,000×g, 4° C., 20 min), resuspended in 50 ml of 10 mM HEPES pH 7.5 ( 1/20 of the initial volume). The cells were lysed by sonication (5 pulses of 45 seconds) at 45 W on ice. The lysates were clarified by centrifugation at 10,000×g for 40 minutes at 4° C. Samples were diluted 5-fold in 50 mM sodium acetate pH 5.0, stored overnight at 4° C., after which they were centrifuged at 10,000×g for 30 minutes to clarify, and filtered through 0.45 μm filters. The samples were loaded onto a 5 ml Capto S sepharose cation exchange column (GE Healthcare) pre-equilibrated with 50 mM sodium acetate pH 5.0. The column was washed with 5 column volumes of 50 mM sodium acetate pH 5.0 to wash out unbound protein and a linear gradient of NaCl (0 to 500 mM) was used to elute the protein (over 16 CV) from the column. Fractions were assayed for β-lactamase activity using Centa (Calbiochem, Gibbstown, N.J.) or Nitrocefin (EMD Millipore chemicals, Darmstadt, Germany) as a reporter β-lactamase substrate for activity in the isolated fractions. Active fractions were pooled, concentrated and further purified by gel filtration chromatography on a Superdex 75 prep grade gel filtration column (GE Healthcare, Piscataway, N.J.) pre-equilibrated in 50 mM Hepes pH 7.5, 150 mM NaCl. Active fractions were pooled concentrated, quantitated by BCA protein determination (Thermo Scientific, Rockford, Ill.), dialyzed into PBS and frozen at −80° C. in 20% glycerol until use.
(§5) An equal volume of diluted enzyme stock was added, and the plates were incubated at 37° C. for 15 min. Nitrocefin was used as substrate for p99 AmpC, VIM-2 and OXA-1 and dispensed into each well at a final concentration of 100 μM. Absorbance at 486 nm was immediately monitored for 10 min using a Biotek Powerwave XS2 microplate spectrophotometer using the GEN5 software package (Biotek Instruments, Winooski Vt.). In an analogous fashion, imipenem was used as substrate for Kpc-2 and Cefotaxime was used for SHV-5, while changes in absorbance upon hydrolysis of the β-lactam ring were monitored at 300 nm and 260 nm respectively in UV-transparent 96-well microtiter assay plates. Maximum rates of hydrolysis were compared to those in control wells (without inhibitors), and percentages of enzyme inhibition were calculated for each concentration of inhibitor. The concentration of inhibitor needed to reduce the initial rate of hydrolysis of substrate by 50% (IC50) was calculated as the residual activity of β-lactamase at 486 nm using GraFit version 7 kinetics software package (Erithacus Software, Surrey, UK).
(§6) Using the methodology described above, examples of the current invention were evaluated for their ability to inhibit β-lactamase enzymes from all four Ambler classifications (A through D). […] NT=Not tested.

[3] = system: E. cloacae 144200 expressing Class C P99 AmpC; test: Broth microdilution MIC, E. cloacae 144200 p99 AmpC; format: cell-based; details: fixed 4 μg/mL ceftazidime; CAMHB, 16-20 hours at 37° C.
Excerpt: as §1, §2, §3

[4] = system: S. aureus MSSA-7 producing penicillinase PC-1; test: Broth microdilution MIC, S. aureus MSSA-7 PC-1; format: cell-based; details: fixed 4 μg/mL piperacillin; CAMHB, 16-20 hours at 37° C.
Excerpt: as §1, §2, §3

[5] = molecular target: T2, OXA-1 β-lactamase (Class D oxacillinase) (Escherichia coli, UniProt P13661); test: β-Lactamase inhibition, OXA-1; format: biochemical; details: nitrocefin 100 μM, 486 nm; 15 min preincubation at 37° C., PBS pH 7.4
T2 construct: made in house; host or cells: E. coli BL21(DE3)
T2 sequence (P13661 26-276): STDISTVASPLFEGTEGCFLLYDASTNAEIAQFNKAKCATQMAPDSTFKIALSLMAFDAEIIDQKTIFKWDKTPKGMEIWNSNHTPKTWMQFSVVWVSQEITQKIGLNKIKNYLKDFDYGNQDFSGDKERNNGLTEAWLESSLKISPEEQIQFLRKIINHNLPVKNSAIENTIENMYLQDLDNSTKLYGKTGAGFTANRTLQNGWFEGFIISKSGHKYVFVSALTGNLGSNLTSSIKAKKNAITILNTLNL
Experimental: as §4, §5, §6

[6] = system: K. pneumoniae A-1797 expressing KPC-2 and VIM-4; test: Broth microdilution MIC, K. pneumoniae A-1797 KPC-2/VIM-4; format: cell-based; details: fixed 4 μg/mL meropenem; CAMHB, 16-20 hours at 37° C.
Excerpt: as §1, §2, §3

[7] = molecular target: T3, SHV-5 β-lactamase (Class A ESBL) (Klebsiella pneumoniae, UniProt P0A3M1); test: β-Lactamase inhibition, SHV-5; format: biochemical
T3 construct: made in house; host or cells: E. coli BL21(DE3)
T3 sequence (P0A3M1 22-286): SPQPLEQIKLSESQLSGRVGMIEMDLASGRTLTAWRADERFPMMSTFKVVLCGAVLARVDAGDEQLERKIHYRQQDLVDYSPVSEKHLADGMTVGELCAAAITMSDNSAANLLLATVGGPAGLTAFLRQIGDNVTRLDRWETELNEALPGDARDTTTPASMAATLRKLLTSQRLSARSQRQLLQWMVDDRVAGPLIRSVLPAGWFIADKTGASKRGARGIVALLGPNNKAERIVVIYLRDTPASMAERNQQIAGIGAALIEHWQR
Experimental: as §4, §5, §6

[8] = molecular target: T4, KPC-2 β-lactamase (Class A carbapenemase) (Klebsiella pneumoniae, UniProt Q9F663); test: β-Lactamase inhibition, KPC-2; format: biochemical; details: imipenem substrate, 300 nm; 15 min preincubation at 37° C., PBS pH 7.4
T4 construct: made in house; host or cells: E. coli BL21(DE3)
T4 sequence (Q9F663 25-293, looked up): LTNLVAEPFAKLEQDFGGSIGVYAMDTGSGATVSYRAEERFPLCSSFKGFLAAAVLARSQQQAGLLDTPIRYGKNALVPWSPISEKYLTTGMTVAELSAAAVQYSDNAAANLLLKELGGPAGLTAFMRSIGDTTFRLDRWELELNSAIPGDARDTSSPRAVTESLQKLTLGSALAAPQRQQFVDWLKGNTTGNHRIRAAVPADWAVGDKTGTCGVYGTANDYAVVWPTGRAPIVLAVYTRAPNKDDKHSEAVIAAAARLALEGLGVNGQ
Experimental: as §4, §5, §6

[9] = molecular target: T5, VIM-2 metallo-β-lactamase (Class B) (Pseudomonas aeruginosa, UniProt Q9K2N0); test: β-Lactamase inhibition, VIM-2; format: biochemical; details: nitrocefin 100 μM, 486 nm; 15 min preincubation at 37° C., PBS pH 7.4
T5 construct: made in house; host or cells: E. coli BL21(DE3)
Experimental: For Vim-2 metallo β-lactamase, the procedure was identical with the following exceptions, first the protein was not pH adjusted to pH 5 with 50 mM sodium acetate, second, the chromatography step was changed to a 5 ml Q sepharose anion exchange column pre-equilibrated with 50 mM Hepes pH 7.5, and elution of the protein was achieved by a linear gradient of NaCl (0-600 mM). Finally, the VIM-2 purification required a second run (3rd step) on the Q sepharose anion exchange column to achieve acceptable purity (>90%).
as §5, §6

[10] = system: E. coli ESBL4 expressing CTX-M-15; test: Broth microdilution MIC, E. coli ESBL4 CTX-M-15; format: cell-based; details: fixed 4 μg/mL ceftazidime; CAMHB, 16-20 hours at 37° C.
Excerpt: as §1, §2, §3

[11] = system: P. aeruginosa Ps296 expressing VIM-2; test: Broth microdilution MIC, P. aeruginosa Ps296 VIM-2; format: cell-based; details: fixed 4 μg/mL meropenem; CAMHB, 16-20 hours at 37° C.
Excerpt: as §1, §2, §3

SMILES	MIC of example compound in presence of fixed β-lactam: Fixed Mero, K. P. 156319 KPC-3 [1]	IC50 [2]	MIC of example compound in presence of fixed β-lactam: Fixed CAZ, E. cl. 144200 p99 AmpC [3]	MIC of example compound in presence of fixed β-lactam: Fixed Pip, S. aureus MSSA-7 PC-1 [4]	IC50 [5]	MIC of example compound in presence of fixed β-lactam: Fixed Mero, K. P. A-1797 KPC-2 VIM-4 [6]	IC50 [7]	IC50 [8]	IC50 [9]	MIC of example compound in presence of fixed β-lactam: Fixed CAZ, E. coli ESBL4 CTX-M-15 [10]	MIC of example compound in presence of fixed β-lactam: Fixed Mero, P. aerug. Ps296 VIM-2 [11]
N[C@@H]1CCN(CC(=O)N[C@H]2Cc3cccc(C(=O)O)c3OB2O)C1 [Example 6, 3-[2-(R-3-Amino-pyrrolidin-1-yl)-acetylamino]-2-hydroxy-3,4-dihydro-2H-benzo[e][1,2]oxaborinine-8-carboxylic acid]	C (the MIC in the presence of <4 μg/mL of a β-lactamase inhibitor)	< 100 nM	C (the MIC in the presence of <4 μg/mL of a β-lactamase inhibitor)	A (an MIC of the fixed β-lactam antibiotic in the presence of >32 μg/mL of a β-lactamase inhibitor)	100 to 1000 nM	B (the MIC in the presence of between 8 and 32 μg/mL of a β-lactamase inhibitor)	< 100 nM	100 to 1000 nM	1000 to 10000 nM	C (the MIC in the presence of <4 μg/mL of a β-lactamase inhibitor)	B (the MIC in the presence of between 8 and 32 μg/mL of a β-lactamase inhibitor)
N[C@H]1CCN(CC(=O)N[C@H]2Cc3cccc(C(=O)O)c3OB2O)C1 [Example 7, 3-[2-(S-3-Amino-pyrrolidin-1-yl)-acetylamino]-2-hydroxy-3,4-dihydro-2H-benzo[e][1,2]oxaborinine-8-carboxylic acid]	C (the MIC in the presence of <4 μg/mL of a β-lactamase inhibitor)	< 100 nM	C (the MIC in the presence of <4 μg/mL of a β-lactamase inhibitor)	C (the MIC in the presence of <4 μg/mL of a β-lactamase inhibitor)	100 to 1000 nM	A (an MIC of the fixed β-lactam antibiotic in the presence of >32 μg/mL of a β-lactamase inhibitor)	< 100 nM	100 to 1000 nM	1000 to 10000 nM	C (the MIC in the presence of <4 μg/mL of a β-lactamase inhibitor)	A (an MIC of the fixed β-lactam antibiotic in the presence of >32 μg/mL of a β-lactamase inhibitor)
O=C(CN1CCNCC1=O)N[C@H]1Cc2cccc(C(=O)O)c2OB1O [Example 8, 2-Hydroxy-3-[2-(2-oxo-piperazin-1-yl)-acetylamino]-3,4-dihydro-2H-benzo[e][1,2]oxaborinine-8-carboxylic acid]	C (the MIC in the presence of <4 μg/mL of a β-lactamase inhibitor)	< 100 nM	C (the MIC in the presence of <4 μg/mL of a β-lactamase inhibitor)	C (the MIC in the presence of <4 μg/mL of a β-lactamase inhibitor)	< 100 nM	A (an MIC of the fixed β-lactam antibiotic in the presence of >32 μg/mL of a β-lactamase inhibitor)	10000 to 100000 nM	100 to 1000 nM	1000 to 10000 nM	C (the MIC in the presence of <4 μg/mL of a β-lactamase inhibitor)	A (an MIC of the fixed β-lactam antibiotic in the presence of >32 μg/mL of a β-lactamase inhibitor)
O=C(CN[C@@H]1CCNC1)N[C@H]1Cc2cccc(C(=O)O)c2OB1O [Example 9, 2-Hydroxy-3-[2-(pyrrolidin-3-ylamino)-acetylamino]-3,4-dihydro-2H-benzo[e][1,2]oxaborinine-8-carboxylic acid]	C (the MIC in the presence of <4 μg/mL of a β-lactamase inhibitor)	< 100 nM	C (the MIC in the presence of <4 μg/mL of a β-lactamase inhibitor)	C (the MIC in the presence of <4 μg/mL of a β-lactamase inhibitor)	< 100 nM	A (an MIC of the fixed β-lactam antibiotic in the presence of >32 μg/mL of a β-lactamase inhibitor)	< 100 nM	< 100 nM	10000 to 100000 nM	C (the MIC in the presence of <4 μg/mL of a β-lactamase inhibitor)	A (an MIC of the fixed β-lactam antibiotic in the presence of >32 μg/mL of a β-lactamase inhibitor)
